From patent publication US20250127165A1, “USE OF 2-AMINO-3-PHENYLBUTYRIC ACID OR 2,6-DIAMINO-3-METHYLHEXANOIC ACID AS PLANT IMMUNE RESISTANCE INDUCER” (NANJING TIANNONG BIOTECHNOLOGY CO., LTD., priority 2021, published 2025)

What was measured:
[1] = system: tomato spotted wilt virus; assay: Induced resistance of tobacco to tomato spotted wilt virus infection; assay type: in vivo, Nicotiana benthamiana; settings: for viral protein content: leaves 3 days after inoculation, Western blot grey scale
Procedure: Tomato spotted wilt virus was obtained from Yunnan Province, China. The initial virus source was stored in a refrigerator at −80° C., and inoculated on the leaves of Nicotiana benthamiana using friction inoculation method to activate the virus. The virus plasmids were extracted and transformed with competent cells of Escherichia coli. The competent cells were coated on a resistant plate for culture. Single colonies were picked for PCR screening, and positive colonies were selected for sequencing and subsequent plasmid extraction. The plasmids with normal sequencing results were added to competent cells of Agrobacterium sp, and Agrobacterium was transformated by electroporation. A solution of the transformed Agrobacterium was coated on the corresponding resistant screening plate, and cultured at 28° C. (+1° C.) for 48 h. Single colonies of the Agrobacterium on transformation plate were picked, placed in 5 mL of LB medium with the corresponding resistance, and cultured overnight at 28° C., 180 rpm. The bacterial cells were collected by centrifugation at 6,000 rpm for 2 min, suspended with a treatment solution (10 mM MgCl2, 10 mM MES, and 10 μM Acetosyringone) until the OD600 value of the suspension was 0.5. The suspension was treated at 28° C. in the dark for 3 hours for later use. 2-amino-3-phenylbutyric acid was dissolved in distilled water and then gradiently diluted with distilled water into solutions of 0 nM, 0.1 nM, 1 nM, and 10 nM. Nicotiana benthamiana seeds were planted in small pots and incubated at 22° C. (+1° C.), 12 h/12 h light for 5 weeks. Healthy tobacco plants (preferably with 8-10 leaves) were selected and treated with the 2-amino-3-phenylbutyric acid solutions of the above concentrations by spraying on the stems and leaves, and repeated the treatment at 24-hour intervals for a total of two treatments. After 24 hours, a uniform concentration of Agrobacterium solution was extracted with a 1 mL syringe, the injection port of the syringe was pressed directly on the small hole on the back of the tobacco leaf, and the bacterial solution was slowly pushed in order to infiltrate soak the entire leaf. The infiltrated tobacco was moved to an environment of 24° C. (+1° C.), 12 h/12 h light for incubation. After 3 days, microscopic observation was performed and recorded. At the same time, the samples were taken, and the gray scale of protein bands was analyzed by Western blot combined with Image J software to determine the relative protein content of virus in leaves. After 15 days, the disease of tobacco leaves was observed and the disease index was recorded with reference to “grade and investigation method of tobacco diseases and insect pests” (GB/T 23222-2008) with the following formulas: […]
Grading standard of Tomato spotted wilt virus disease (grading and investigation were conducted per plant): • Grade 0: the whole plant is disease free; • Grade 1: heart leaves have clear veins or slightly mosaic, and there is no obvious dwarfing of diseased plants; • Grade 3: one-third of the leaves are mosaic without deformation, or the diseased plant is dwarfed to three quarters or more of the normal plant height; • Grade 5: one-third to one-half of the leaves are mosaic, or a few leaves are deformed, or the main veins become black, or the diseased plant is dwarfed to two-thirds to three-quarters of the normal plant height; • Grade 7: one-half to two-thirds of the leaves are mosaic or deformed, or a few main and lateral veins become necrotic, or the diseased plant is dwarfed to one-half to two-thirds of the normal plant height; • Grade 9: the leaves of the whole plant are mosaic, severely deformed or necrotic, or the diseased plant is dwarfed to one-half or […] of the normal plant height.

Arabidopsis thaliana = assay: Induced resistance of Arabidopsis thaliana to high temperature stress; assay type: in vivo; settings: for heat injury index (%): 45° C. 12 h, 7 days recovery; for PIABS (photosynthetic performance index): after 45° C. for 12 h
Procedure: 2-amino-3-phenylbutyric acid was dissolved in distilled water and then gradiently diluted with distilled water into solutions of 100 nM, 1,000 nM, and 10,000 nM, and a blank control was set up, while 0.02% Tween 20 was added as surfactant. Four groups of replicates were set up for each concentration, and set up a blank control at room temperature. Arabidopsis thaliana seeds were planted in a pot with a diameter of 8.5 cm at about 50 seeds per pot, and grown in a greenhouse at a temperature of 22° C., a humidity of 60%-70%, and a light intensity of 100 μmol m^−2s^−1 (16 h light/8 h darkness). The treatment was initiated at the 21 d of seedling stage of Arabidopsis thaliana by spraying 2-amino-3-phenylbutyric acid solution on the leaf surface, and spraying twice within 24 hours. 24 hours after the second treatment, the plants were transferred to a light incubator at a temperature of 45° C. for high temperature stress treatment. After 12 h of treatment, they were treated in the dark at room temperature for 30 min, and then the chlorophyll fluorescence of the Arabidopsis thaliana leaves was measured with Plant Efficiency Handy PEA. Then, the plants were removed and transferred to a greenhouse at 25° C. for 7 days for recovery. The injured conditions of the plants were observed and the grade of hot injury was calculated, where the grading standard of heat injury is shown in Table 1, and the formula for calculating the heat injury index is as follows.
The concentrations of 2,6-diamino-3-methylhexanoic acid used in this trail are 0, 1, 10, 100 and 1,000 nM, and 0.02% Tween 20 is added as a surfactant. Four groups of replicates were set up. Other methods were the same as 2-amino-3-phenylbutyric acid, and the effect of 2,6-diamino-3-methylhexanoic acid to induce the resistance of Arabidopsis thaliana to high temperature stress was investigated.

[2] = 0.1 nM spray, 15 days after inoculation
[3] = 1 nM spray, 15 days after inoculation
[4] = each treatment in the range 0.1-10 nM
[5] = 10,000 nM, versus untreated heat-stressed group

Compound | relative immunization effect (%) ([1]; 0.1 nM) | disease index [1, 2] [b] | viral protein content ([1]; 0.1 nM) [b] | relative immunization effect (%) ([1]; 1 nM) | disease index [1, 3] [c] | viral protein content ([1]; 1 nM) [c] | relative immunization effect (%) ([1]; 10 nM) | disease index [1, 4] | relative immune effect [1, 4] [%] | heat injury index (%) (Arabidopsis thaliana; 100 nM) | PIABS (photosynthetic performance index) (Arabidopsis thaliana; 100 nM) | heat injury index (%) (Arabidopsis thaliana; 1,000 nM) | PIABS (photosynthetic performance index) (Arabidopsis thaliana; 1,000 nM) | other results
CC(c1ccccc1)C(N)C(=O)O (stereo not drawn) [2-amino-3-phenylbutyric acid] | 35.77 | 48.77 ± 0.87 | 0.33 ± 0.003 | 60.98 | 29.63 ± 1.51 | 0.14 ± 0.008 | 69.23 | lower than 50 | ≥ 35 | 47 | 26.13 ± 7.37 bc | 31 | 27.27 ± 3.93 bc | heat injury index (%) (Arabidopsis thaliana; 10,000 nM): 16%; PIABS (photosynthetic performance index) (Arabidopsis thaliana; 10,000 nM): 33.40 ± 3.91 b; decrease of heat injury index (Arabidopsis thaliana; [5]): 56%; increase of PIABS (Arabidopsis thaliana; [5]): 134%
CC(CCCN)C(N)C(=O)O (stereo not drawn) [2,6-diamino-3-methylhexanoic acid] | 53.08 | 42.64 ± 1.25 | 0.41 ± 0.005 | 63.72 | 32.97 ± 1.26 | 0.23 ± 0.002 | 70.94 | lower than 50 | ≥ 50 | 29 | 5.73 ± 0.17 c | 9 | 9.49 ± 0.14 b | heat injury index (%) (Arabidopsis thaliana; 1 nM): 49%; PIABS (photosynthetic performance index) (Arabidopsis thaliana; 1 nM): 1.84 ± 0.02 e; heat injury index (%) (Arabidopsis thaliana; 10 nM): 38%; PIABS (photosynthetic performance index) (Arabidopsis thaliana; 10 nM): 3.58 ± 0.11 days; increase of PIABS compared with the control group (Arabidopsis thaliana; 1,000 nM): 36 fold; decrease of heat injury index (Arabidopsis thaliana; 1,000 nM, versus untreated heat-stressed group): 64%
